# Values quoted from earlier work as cited in the CATMoS acute toxicity set (Mansouri et al. 2021).
# Where “and” joins values, the source holds several entries; their conditions need not be identical. Equal entries are not always repeated.
# Assay: rat acute oral toxicity
# Details: in vivo
row,SMILES,LD50
1,CN(Cc1ccc(Cl)cc1Cl)S(N)(=O)=O,2350 mg/kg
2,Cc1nc2ccccc2n1Cc1ccc(Cl)cc1,2200 mg/kg
3,Ic1nc(I)c(I)[nH]1,278 mg/kg
4,O=C(C(F)(F)Cl)C(F)(F)Cl,61 mg/kg
5,CNC(=O)Oc1ccccc1C1OCC(C)(C)O1 (stereo unspecified),110 mg/kg
6,O=C(O)c1cc(Cl)ccc1O,250 mg/kg
7,COc1ccc2c(c1)C13CCCCC1C(C2)N(C)CC3 (stereo unspecified),235 mg/kg
8,Cc1ccc(OCC(=O)N[C@@H]2C(=O)N3[C@@H]2SC(C)(C)[C@@H]3C(=O)O)cc1Cl,2250 mg/kg
9,Cc1cccc(C(C)c2ccccc2)c1C (stereo unspecified),2050 mg/kg
10,CCCc1c(OCc2cccn3c(=O)c(CC(=O)O)cnc23)ccc(C(C)=O)c1O,4000 mg/kg
11,Oc1c(Cl)cnc(Cl)c1Cl,80 mg/kg
12,O=C1O[C@@H]2[C@@H](O)[C@H](O)O[C@@H]2[C@H]1O,10700 mg/kg
13,CNC[C@H](O)c1ccc(O)c(O)c1,30 mg/kg and 24 mg/kg
14,COP(=S)(OC)Sc1ccc(Cl)cc1,500 mg/kg
15,CNC(C)C1CCC(N)C(OC2C(N)CC(N)C(OC3OCC(C)(O)C(NC)C3O)C2O)O1 (stereo unspecified),6600 mg/kg
16,CC(C)OP(O)(=S)OC(C)C,20200 mg/kg
17,CCC(CN)=C(c1ccccc1)c1ccccc1,148 mg/kg
18,O=C(NN=C1C=CC(=NO)C=C1)c1ccccc1,100 mg/kg
19,O=C1c2c(O)ccc(O)c2C(=O)c2c(NCCNCCO)ccc(NCCNCCO)c21,682 mg/kg
20,Clc1ccc(N2N=N[C@@H]3[C@@H]4C[C@@H]([C@H]5N=N[C@@H]45)[C@@H]32)cc1,261 mg/kg
21,CC(C)(C)c1ccc2c(c1)C(C)(C)CC2,15500 mg/kg

row,SMILES,LD50
1,CC(=O)NO,4800 mg/kg
2,CN(C)c1ccc(N=Nc2cccc(Br)c2)cc1,13000 mg/kg
3,CCCCCCCCCc1ccc(OCCO)cc1,2100 mg/kg
4,Nc1ccc(OCCO)c(N)c1,1000 mg/kg
5,CCN(CC)CCOCc1cc(Br)ccc1OC,220 mg/kg
6,O=C(O)CNCP(=O)(O)O,4870 mg/kg and 10500 mg/kg
7,O=[N+]([O-])c1cccc(S(=O)(=O)O)c1,11000 mg/kg
8,CNC(=O)CSP(=O)(OC)SC (stereo unspecified),100 mg/kg
9,C/N=N/Nc1ccccc1,420 mg/kg
10,Cc1cc(NC(=O)c2ccccc2O)n(-c2ccccc2)n1,1320 mg/kg
11,CCCCC(CC)OCCO (stereo unspecified),2280 mg/kg
12,C1CCN2C[C@@H]3C[C@@H](C[C@H]2C1)N1CCCC[C@@H]31,960 mg/kg
13,CCC(OC(C)=O)C(CC(C)NC)(c1ccccc1)c1ccccc1 (stereo unspecified),44 mg/kg
14,O=C1C=CC(=O)N1c1ccccc1Cl,520 mg/kg
15,CC(C)(C)C(=O)C(Oc1ccc(Cl)cc1)n1ccnc1 (stereo unspecified),400 mg/kg
16,O=S(=O)(O)c1ccc2cc(Nc3cccc4c(O)c(S(=O)(=O)O)ccc34)ccc2c1O,11000 mg/kg
17,CCCc1nc(C)cc(OC(=O)N(C)C)n1,200 mg/kg
18,COP(=S)(OC)SCC(=O)CNC(=O)Oc1cccc(C(C)C)c1,432 mg/kg
19,Cc1cc(C)c(C2=C(OC(=O)C(C)(C)C)c3ccccc3C2=O)c(C)c1,8000 mg/kg
20,CNc1c2c(nn1C)CCCC2,1850 mg/kg
21,c1ccc2cc(Nc3ccc(Nc4ccc5ccccc5c4)cc3)ccc2c1,4500 mg/kg

row,SMILES,LD50
1,CC1CCCc2ccccc21 (stereo unspecified),6700 mg/kg
2,CCOC(=O)c1cnn(C)c1-n1cnc2ccccc2c1=O,1760 mg/kg
3,CNC(=O)ON=C(SC)c1ccc(Cl)cc1,670 mg/kg
4,CCC(C)S (stereo unspecified),5180 mg/kg
5,CC(Oc1ccc(Oc2ccc(Cl)cc2)cc1)C(=O)O (stereo unspecified),1200 mg/kg
6,C=CCCC(=O)O,470 mg/kg
7,CCSC(SCC)c1ccccc1OC(=O)NC,500 mg/kg
8,CCNCc1cc([N+](=O)[O-])ccc1O,1010 mg/kg
9,Nc1ccc(N)cc1,80 mg/kg and 147 mg/kg
10,COc1c(O)cc(Cl)c(Cl)c1Cl,2980 mg/kg
11,CCC(CC(C)CC)=NO (stereo unspecified),3800 mg/kg
12,CC1COC(C(Cl)CCl)O1 (stereo unspecified),620 mg/kg
13,CC(c1ccc(Cl)cc1)c1ccc(Cl)cc1,1000 mg/kg
14,C=CC(=O)NCNC(=O)C=C,390 mg/kg
15,Cc1ccccc1OCC(O)CO (stereo unspecified),625 mg/kg
16,OCC1CCC(CO)CC1 (stereo unspecified),3200 mg/kg
17,CN=NNc1ccc(C)cc1,381 mg/kg
18,O=C(O)c1cc(Oc2ccc(C(F)(F)F)cc2Cl)ccc1[N+](=O)[O-],1370 mg/kg
19,C(=NC1CCCCC1)c1ccccc1,3080 mg/kg
